Assay: in vitro
Conditions: human, hela cells, % viability

Structure (SMILES)	viability at 28.5 h, 10 µM
CCS(=O)(=O)Nc1cc(C(F)(F)F)ccc1Cl [CBK111339]	111%
CCS(=O)(=O)Nc1cc([N+](=O)[O-])ccc1OC [CBK111343]	97%
CCS(=O)(=O)Nc1cc(Cl)ccc1C [CBK111350]	79.1%
Cc1ccc(NC(C(N)=O)c2c(C)[nH]c(=O)[nH]c2=O)cc1 (stereo not shown) [CBK111355]	98.4%
Cc1ccc([N+](=O)[O-])cc1NS(=O)(=O)Cc1ccc(Cl)cc1 [CBK111359]	71.8%
CN1CCN(Cc2c(O)ccc3occ(C(=O)c4ccccc4)c23)CC1 [CBK111438]	98.2%
COc1ccc(SCC(=O)O)cc1 [CBK111455]	93.7%
CCc1nc2ccccc2n1CC(=O)O [CBK111477]	101%
O=C(O)CCn1c(C2CCCCC2)nc2ccccc21 [CBK111480]	86.2%
CC(OC(=O)C1CCCCC1)c1nc2ccccc2[nH]1 (stereo not shown) [CBK111483]	107%
Cc1[nH]c(=O)[nH]c(=O)c1Cc1cccc2ccccc12 [CBK111494]	92.8%
COCCn1nnnc1C(c1cc2c(C)ccc(C)c2[nH]c1=O)N1CCN(C(=O)c2ccco2)CC1 (stereo not shown) [CBK111563]	98.6%
O=C(NCc1cccnc1)c1ccc(-c2cccc(Cl)c2Cl)o1 [CBK112211]	102%
CCCc1[nH]n(CCc2ccccc2)c(=O)c1Cc1c(Cl)cccc1Cl [CBK112499]	99.8%
Nc1nc2ccccc2cc1-c1cccs1 [CBK112549]	100%
O=C(Nc1ccc2c(c1)C1C=CCC1C(C(=O)O)N2)c1ccc(Cl)cc1Cl (stereo not shown) [CBK112584]	105%
CCOC(=O)C1N(C)C(=O)C(Cc2c(Cl)cccc2Cl)=C(C)N1C (stereo not shown) [CBK112643]	94.4%
COCCN1CCOC2(CCN(C(=O)c3ccc(C)cc3)CC2)C1c1ccccc1OC (stereo not shown) [CBK112657C]	100%
CSc1ccc(-n2ncc(-c3cccc(C(F)(F)F)c3)n2)cc1 [CBK112666]	93.6%
N#Cc1ccc(-n2ncc(-c3cccc(C(F)(F)F)c3)n2)cc1 [CBK112675]	90.9%
Oc1ccc(-n2ncc(-c3cccc(C(F)(F)F)c3)n2)cc1 [CBK112677]	99.9%
COc1ccc(-n2ncc(-c3cccc(C(F)(F)F)c3)n2)cn1 [CBK112678]	95.8%
OCc1ccc(-n2ncc(-c3ccc(C(F)(F)F)cc3)n2)cc1 [CBK112696]	94.6%
CS(=O)(=O)c1ccc(-n2ncc(-c3ccc(C(F)(F)F)cc3)n2)cc1 [CBK112698]	90%
O=C(O)c1cccc(-n2ncc(-c3ccccc3C(F)(F)F)n2)c1 [CBK112721]	98.1%

Structure (SMILES)	viability at 28.5 h, 10 µM
CSc1ccc(-n2ncc(-c3ccc(F)cc3F)n2)cc1 [CBK112728]	91.3%
OCc1ccc(-n2ncc(-c3ccc(F)cc3F)n2)cc1 [CBK112731]	97.3%
Oc1ccc(-n2ncc(-c3ccc(F)cc3F)n2)cc1 [CBK112736]	98%
Fc1ccc(-c2cnn(-c3ccc(OC(F)(F)F)cc3)n2)c(F)c1 [CBK112740]	99.1%
COc1ccc(-c2cnn(-c3ccc(OC)cc3)n2)cc1 [CBK112745]	106%
COc1ccc(-c2cnn(-c3ccccc3CN(C)C)n2)cc1 [CBK112762]	106%
CSc1ccc(-n2ncc(-c3ccc(Cl)cc3)n2)cc1 [CBK112782]	84%
COc1ccc(-n2ncc(-c3cccnc3)n2)cn1 [CBK112827]	96.7%
Clc1ccc(-n2ncc(-c3ccsc3)n2)cc1Cl [CBK112843]	96.3%
CN(C)c1ccc(-n2ncc(-c3ccsc3)n2)cc1 [CBK112845]	86.8%
NC(=O)c1ccc(-n2ncc(-c3ccsc3)n2)cc1 [CBK112858]	98.4%
O=C(O)c1cccc(-n2ncc(-c3ccsc3)n2)c1 [CBK112859]	100%
c1cc(-c2cnn(-c3ccc4c(c3)CCO4)n2)cs1 [CBK112861]	93.4%
COc1ccc(-n2ncc(CN(C)C)n2)cc1OC [CBK112862]	101%
CN(C)Cc1cnn(-c2ccc(Oc3ccccc3)cc2)n1 [CBK112865]	100%
CCOC(=O)c1cccc(-n2ncc(CN(C)C)n2)c1 [CBK112866]	91.4%
CN(C)Cc1ccccc1-n1ncc(CN2CCS(=O)(=O)CC2)n1 [CBK112877]	107%
CCOC(=O)c1cccc(-n2ncc(-c3ccc(F)cc3)n2)c1 [CBK112908]	94.1%
OCc1ccc(-n2ncc(-c3ccc(Br)cc3F)n2)cc1 [CBK112920]	96.6%
CN(C)Cc1ccccc1-n1ncc(-c2ccc(Br)cc2F)n1 [CBK112924]	90.9%
Fc1cc(Br)ccc1-c1cnn(-c2ccccc2)n1 [CBK112925]	103%
COc1ccc(-n2cc(-c3cccc(C(F)(F)F)c3)nn2)cc1OC [CBK112933]	94.9%
FC(F)(F)c1cccc(-c2cn(-c3ccsc3)nn2)c1 [CBK112937]	88.5%
CC(=O)Nc1cccc(-n2cc(-c3cccc(C(F)(F)F)c3)nn2)c1 [CBK112938]	91.2%
O=C(O)c1cccc(-n2cc(-c3cccc(C(F)(F)F)c3)nn2)c1 [CBK112949]	114%

Structure (SMILES)	viability at 28.5 h, 10 µM
CSc1ccc(-n2cc(-c3ccc(F)cc3F)nn2)cc1 [CBK112979]	99.3%
OCc1ccc(-n2cc(-c3ccc(F)cc3F)nn2)cc1 [CBK112982]	89.2%
Fc1ccc(-c2cn(-c3cncnc3)nn2)c(F)c1 [CBK112989]	96.4%
Cc1ccc(Cl)cc1-n1cc(-c2ccc(F)cc2F)nn1 [CBK112995]	89.2%
O=C(O)c1cccc(-n2cc(-c3ccc(F)cc3F)nn2)c1 [CBK112998]	95.9%
COc1ccc(-c2cn(-c3cc(Cl)ccc3C)nn2)cc1 [CBK113023]	58.6%
COc1ccc(-c2cn(-c3ccc4c(c3)CCO4)nn2)cc1 [CBK113027]	88.5%
CC(C)(C)c1ccc(-n2cc(-c3ccc(Cl)cc3)nn2)cc1 [CBK113031]	102%
FC(F)(F)c1cccc(-n2cc(-c3cccnc3)nn2)c1 [CBK113053]	86%
CN(C)Cc1ccccc1-n1cc(-c2cccnc2)nn1 [CBK113064]	92.5%
FC(F)(F)Oc1ccc(-n2cc(-c3ccsc3)nn2)cc1 [CBK113096]	92.7%
O=S1(=O)CCN(Cc2cn(-c3ccccc3)nn2)CC1 [CBK113103]	88.9%
O=S1(=O)CCN(Cc2cn(-c3ccc(-c4ccccc4)cc3)nn2)CC1 [CBK113105]	95.4%
COc1ccc(-n2cc(-c3ccncc3)nn2)cc1OC [CBK113106]	109%
COc1ccc(-n2cc(-c3ccc(F)cc3)nn2)cc1 [CBK113111]	102%
CC(C)(C)c1ccc(-n2cc(-c3ccc(F)cc3)nn2)cc1 [CBK113112]	103%
Fc1ccc(-c2cn(-c3ccc4c(c3)CCO4)nn2)cc1 [CBK113132]	97%
COc1ccc(-n2cc(-c3ccccn3)nn2)cc1OC [CBK113133]	103%
CCc1ccc(-n2cc(-c3ccccn3)nn2)cc1 [CBK113137]	106%
Fc1cc(Br)ccc1-c1cn(-c2ccc3[nH]ccc3c2)nn1 [CBK113146]	91.2%
Fc1cc(Br)ccc1-c1cn(-c2ccccc2)nn1 [CBK113148]	80.7%
CCOC(=O)c1cccc(-n2cc(-c3ccc(Br)cc3F)nn2)c1 [CBK113153]	92.3%
Cc1cc(C)n(S(=O)(=O)c2cc(C(=O)O)c(Cl)cc2Cl)n1 [CBK113170]	86.3%
NS(=O)(=O)c1ccccc1Cl [CBK113172]	98.1%
CC(C)(C)c1ccc(C(=O)Nc2nsc(-c3ccc(Cl)cc3)n2)cc1 [CBK113176]	89.6%

Structure (SMILES)	viability at 28.5 h, 10 µM
NS(=O)(=O)c1cc(C(=O)O)ccc1F [CBK113180]	81.1%
COC(=O)c1cc(S(N)(=O)=O)c(C)o1 [CBK113185]	104%
O=C1c2ccccc2CN1c1ccccc1 [CBK113189]	95.9%
O=C1c2ccccc2CN1c1cccc2ccccc12 [CBK113190]	85.3%
CCOC(=O)Cn1nc(C)c(Cc2c(Cl)cccc2Cl)c1CC [CBK113223]	85%
O=C(O)c1cc(S(=O)(=O)Nc2ccc(O)cc2)c(Cl)cc1Cl [CBK113231]	86.8%
O=C(Nc1nsc(-c2ccccc2)n1)c1ccc(F)cc1 [CBK113232]	87.8%
O=C1c2ccccc2CN1c1ccc(OC(F)(F)F)cc1 [CBK113237]	91.3%
Cc1ccc(N2C(=O)c3ccccc3C2Nc2ccccc2)nc1 (stereo not shown) [CBK113238]	101%
Cc1ccc(N2C(=O)c3ccccc3C2=O)cc1 [CBK113243]	95.7%
CN1CCN(CCCCC2(C)SC(NC3CCCCCC3)=NC2=O)CC1 (stereo not shown) [CBK113259]	93.3%
Cc1c(Cc2c(Cl)cccc2Cl)c(=O)n(C)n1C [CBK113274]	97.2%
CCCc1n[nH]c(Cc2c(Cl)cccc2Cl)c1C(=O)OCC [CBK113275]	88.9%
CC(C)Nc1nc2ccccc2nc1OC1CCN(C)C1 (stereo not shown) [CBK113283]	81.1%
FC(F)(F)c1ccnc(OCCN2CCOCC2)c1 [CBK113286]	97.1%
FC(F)(F)c1cccc(OCCN2CCOCC2)n1 [CBK113289]	105%
FC(F)(F)c1cccc(OC2CCCNC2)n1 (stereo not shown) [CBK113290]	93.2%
FC(F)(F)c1ccnc(OCCN2CCNCC2)n1 [CBK113297]	97.5%
FC(F)(F)c1nc2ccccc2nc1OCCN1CCNCC1 [CBK113302]	99.4%
CC(C)Oc1cncc(Cl)n1 [CBK113321]	106%
c1ccc2oc(-c3cc4ccccc4o3)cc2c1 [CBK113363]	113%
Clc1nc2ccccc2nc1OCCOc1ccccc1 [CBK113367]	108%

From paper PMC12040169 (PLOS Biology, 2025)
